Test results: paper PMC5053573, “Structure-Based Design of Tetrahydroisoquinoline-7-carboxamides as Selective Discoidin Domain Receptor 1 (DDR1) Inhibitors” (Journal of Medicinal Chemistry, 2016)

Experiments:
Test in all cases: biochemical
Conditions in all cases: read-out: %Ctrl @ 1000nM
CAMKK2 = CAMKK2 (Homo sapiens, UniProt Q96RR4)
MAPKAPK2 = MAPKAPK2 (Homo sapiens, UniProt P49137)
STK35 = STK35 (Homo sapiens, UniProt Q8TDR2)
EGFR(E746-A750del) = EGFR(E746-A750del) (Homo sapiens, UniProt P00533, DEL746-750)
AKT3 = AKT3 (Homo sapiens, UniProt Q9Y243)
INSRR = INSRR (Homo sapiens, UniProt P14616)
NDR2 = target: T1, NDR2 (Homo sapiens, UniProt Q9Y2H1)
T1 construct: gene STK38L

PIK4CB = target: T2, PIK4CB (Homo sapiens, UniProt Q9UBF8)
T2 construct: gene PI4KB

TAOK3 = TAOK3 (Homo sapiens, UniProt Q9H2K8)
CAMK2B = CAMK2B (Homo sapiens, UniProt Q13554)
CSK = CSK (Homo sapiens, UniProt P41240)
ARK5 = target: T3, ARK5 (Homo sapiens, UniProt O60285)
T3 construct: gene NUAK1

PIK3CA = PIK3CA (Homo sapiens, UniProt P42336)
IRAK3 = IRAK3 (Homo sapiens, UniProt Q9Y616)
ERK8 = target: T4, ERK8 (Homo sapiens, UniProt Q8TD08)
T4 construct: gene MAPK15

PRKX = PRKX (Homo sapiens, UniProt P51817)
FLT3(ITD) = FLT3(ITD) (Homo sapiens, UniProt P36888, ITD)
MEK4 = target: T5, MEK4 (Homo sapiens, UniProt P45985)
T5 construct: gene MAP2K4

DCAMKL3 = target: T6, DCAMKL3 (Homo sapiens, UniProt Q9C098)
T6 construct: gene DCLK3

CSF1R = CSF1R (Homo sapiens, UniProt P07333)
PRKR = target: T7, PRKR (Homo sapiens, UniProt P19525)
T7 construct: gene EIF2AK2

KIT-autoinhibited = KIT-autoinhibited (Homo sapiens, UniProt P10721)
EGFR(L858R,T790M) = EGFR(L858R,T790M) (Homo sapiens, UniProt P00533, L858R/T790M)
CDKL5 = CDKL5 (Homo sapiens, UniProt O76039)
ACVR2B = ACVR2B (Homo sapiens, UniProt Q13705)
LRRK2(G2019S) = LRRK2(G2019S) (Homo sapiens, UniProt Q5S007, G2019S)
ERK4 = target: T8, ERK4 (Homo sapiens, UniProt P31152)
T8 construct: gene MAPK4

PAK7 = target: T9, PAK7 (Homo sapiens, UniProt Q9P286)
T9 construct: gene PAK5

DCAMKL2 = target: T10, DCAMKL2 (Homo sapiens, UniProt Q8N568)
T10 construct: gene DCLK2

PRKD3 = PRKD3 (Homo sapiens, UniProt O94806)
PIK3CB = PIK3CB (Homo sapiens, UniProt P42338)
[1] = target: ABL1(H396P)-nonphosphorylated (Homo sapiens, UniProt P00519, H396P)
DAPK1 = DAPK1 (Homo sapiens, UniProt P53355)
TIE2 = target: T11, TIE2 (Homo sapiens, UniProt Q02763)
T11 construct: gene TEK

MST2 = target: T12, MST2 (Homo sapiens, UniProt Q13188)
T12 construct: gene STK3
T12 sequence (Q13188 whole entry): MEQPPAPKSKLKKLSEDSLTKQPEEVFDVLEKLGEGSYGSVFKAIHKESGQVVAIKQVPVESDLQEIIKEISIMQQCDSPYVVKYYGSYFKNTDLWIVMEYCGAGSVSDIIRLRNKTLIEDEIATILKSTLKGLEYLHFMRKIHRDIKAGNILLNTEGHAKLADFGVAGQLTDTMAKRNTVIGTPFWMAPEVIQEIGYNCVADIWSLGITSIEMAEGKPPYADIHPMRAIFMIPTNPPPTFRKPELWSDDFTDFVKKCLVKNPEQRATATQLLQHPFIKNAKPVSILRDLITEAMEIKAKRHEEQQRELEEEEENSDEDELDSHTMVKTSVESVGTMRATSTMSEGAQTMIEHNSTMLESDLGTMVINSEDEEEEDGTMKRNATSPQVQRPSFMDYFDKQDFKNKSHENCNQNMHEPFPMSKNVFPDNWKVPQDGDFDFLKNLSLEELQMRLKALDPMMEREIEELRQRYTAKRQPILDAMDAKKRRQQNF

T2 sequence (Q9UBF8 whole entry): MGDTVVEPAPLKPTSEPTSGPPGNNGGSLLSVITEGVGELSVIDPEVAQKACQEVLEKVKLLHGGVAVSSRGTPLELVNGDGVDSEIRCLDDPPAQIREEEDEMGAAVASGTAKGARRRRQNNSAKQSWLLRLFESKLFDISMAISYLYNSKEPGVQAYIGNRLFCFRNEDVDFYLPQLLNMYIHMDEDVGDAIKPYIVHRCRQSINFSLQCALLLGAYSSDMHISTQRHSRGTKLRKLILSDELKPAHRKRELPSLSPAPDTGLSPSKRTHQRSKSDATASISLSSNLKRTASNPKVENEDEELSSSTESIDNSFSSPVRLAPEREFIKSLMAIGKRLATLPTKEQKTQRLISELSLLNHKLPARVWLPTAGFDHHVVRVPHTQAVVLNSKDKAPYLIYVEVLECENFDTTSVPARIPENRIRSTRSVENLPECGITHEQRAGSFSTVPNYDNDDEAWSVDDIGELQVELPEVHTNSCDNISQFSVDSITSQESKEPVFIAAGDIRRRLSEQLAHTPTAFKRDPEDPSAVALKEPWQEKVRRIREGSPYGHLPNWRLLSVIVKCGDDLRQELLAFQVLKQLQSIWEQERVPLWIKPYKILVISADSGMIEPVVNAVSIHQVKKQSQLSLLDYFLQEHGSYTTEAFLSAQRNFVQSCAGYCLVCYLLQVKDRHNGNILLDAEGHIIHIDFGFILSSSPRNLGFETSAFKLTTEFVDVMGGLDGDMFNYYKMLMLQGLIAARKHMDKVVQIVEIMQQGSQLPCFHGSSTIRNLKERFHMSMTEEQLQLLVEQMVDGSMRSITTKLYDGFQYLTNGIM
Chain of CSF1R (P07333 whole entry): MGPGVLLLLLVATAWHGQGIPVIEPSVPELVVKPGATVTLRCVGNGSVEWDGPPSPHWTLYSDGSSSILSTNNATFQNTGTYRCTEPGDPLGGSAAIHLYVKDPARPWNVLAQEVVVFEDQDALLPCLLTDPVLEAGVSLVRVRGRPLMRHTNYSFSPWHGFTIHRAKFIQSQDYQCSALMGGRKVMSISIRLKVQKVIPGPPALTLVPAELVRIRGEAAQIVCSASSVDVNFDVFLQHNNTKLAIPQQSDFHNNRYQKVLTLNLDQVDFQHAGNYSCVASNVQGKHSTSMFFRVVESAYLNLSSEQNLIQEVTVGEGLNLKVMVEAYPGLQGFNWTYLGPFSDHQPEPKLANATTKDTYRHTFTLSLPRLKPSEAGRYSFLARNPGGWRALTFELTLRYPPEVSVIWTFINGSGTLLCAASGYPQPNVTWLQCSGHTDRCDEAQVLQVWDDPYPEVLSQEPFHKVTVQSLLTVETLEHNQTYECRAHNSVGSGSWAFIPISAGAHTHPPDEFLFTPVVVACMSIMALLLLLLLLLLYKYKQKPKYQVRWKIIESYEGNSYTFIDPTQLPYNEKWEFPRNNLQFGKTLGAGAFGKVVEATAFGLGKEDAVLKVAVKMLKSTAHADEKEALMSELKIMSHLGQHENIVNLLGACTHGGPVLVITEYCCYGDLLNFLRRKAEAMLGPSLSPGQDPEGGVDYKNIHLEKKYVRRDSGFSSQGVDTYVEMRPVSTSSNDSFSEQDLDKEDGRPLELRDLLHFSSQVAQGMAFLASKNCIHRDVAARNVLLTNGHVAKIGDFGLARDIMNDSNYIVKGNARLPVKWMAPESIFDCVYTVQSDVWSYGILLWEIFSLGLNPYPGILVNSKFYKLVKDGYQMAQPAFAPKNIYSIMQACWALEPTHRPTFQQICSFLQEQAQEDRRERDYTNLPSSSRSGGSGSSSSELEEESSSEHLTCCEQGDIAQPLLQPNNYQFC
Chain of PIK3CA (P42336 whole entry): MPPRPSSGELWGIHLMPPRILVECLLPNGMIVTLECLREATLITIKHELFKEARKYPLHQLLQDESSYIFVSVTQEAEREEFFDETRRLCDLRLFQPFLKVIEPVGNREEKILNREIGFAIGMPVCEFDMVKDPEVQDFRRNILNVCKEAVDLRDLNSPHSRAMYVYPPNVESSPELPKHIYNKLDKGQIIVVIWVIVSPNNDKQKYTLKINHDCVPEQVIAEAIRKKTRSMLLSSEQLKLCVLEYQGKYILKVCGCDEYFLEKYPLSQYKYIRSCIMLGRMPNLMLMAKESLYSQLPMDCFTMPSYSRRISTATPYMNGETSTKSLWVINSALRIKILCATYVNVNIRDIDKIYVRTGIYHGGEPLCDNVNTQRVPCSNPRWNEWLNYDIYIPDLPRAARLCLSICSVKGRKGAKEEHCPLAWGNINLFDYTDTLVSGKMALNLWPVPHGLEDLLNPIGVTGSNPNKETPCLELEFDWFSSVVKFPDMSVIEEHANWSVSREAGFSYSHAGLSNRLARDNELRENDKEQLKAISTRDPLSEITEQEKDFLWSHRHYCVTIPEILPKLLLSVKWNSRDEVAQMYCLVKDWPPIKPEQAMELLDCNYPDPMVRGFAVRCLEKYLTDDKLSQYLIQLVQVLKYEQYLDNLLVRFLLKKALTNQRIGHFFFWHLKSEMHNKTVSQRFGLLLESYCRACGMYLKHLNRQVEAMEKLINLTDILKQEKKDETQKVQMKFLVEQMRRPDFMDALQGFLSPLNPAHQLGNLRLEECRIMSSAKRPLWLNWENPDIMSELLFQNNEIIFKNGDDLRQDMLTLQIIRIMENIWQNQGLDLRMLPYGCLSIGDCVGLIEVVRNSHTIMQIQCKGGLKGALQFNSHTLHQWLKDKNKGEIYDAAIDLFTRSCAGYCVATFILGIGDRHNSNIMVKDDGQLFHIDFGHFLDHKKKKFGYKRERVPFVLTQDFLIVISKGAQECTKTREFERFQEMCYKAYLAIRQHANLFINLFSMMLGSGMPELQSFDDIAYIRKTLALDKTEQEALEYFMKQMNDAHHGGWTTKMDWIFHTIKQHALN
T6 sequence (Q9C098 whole entry): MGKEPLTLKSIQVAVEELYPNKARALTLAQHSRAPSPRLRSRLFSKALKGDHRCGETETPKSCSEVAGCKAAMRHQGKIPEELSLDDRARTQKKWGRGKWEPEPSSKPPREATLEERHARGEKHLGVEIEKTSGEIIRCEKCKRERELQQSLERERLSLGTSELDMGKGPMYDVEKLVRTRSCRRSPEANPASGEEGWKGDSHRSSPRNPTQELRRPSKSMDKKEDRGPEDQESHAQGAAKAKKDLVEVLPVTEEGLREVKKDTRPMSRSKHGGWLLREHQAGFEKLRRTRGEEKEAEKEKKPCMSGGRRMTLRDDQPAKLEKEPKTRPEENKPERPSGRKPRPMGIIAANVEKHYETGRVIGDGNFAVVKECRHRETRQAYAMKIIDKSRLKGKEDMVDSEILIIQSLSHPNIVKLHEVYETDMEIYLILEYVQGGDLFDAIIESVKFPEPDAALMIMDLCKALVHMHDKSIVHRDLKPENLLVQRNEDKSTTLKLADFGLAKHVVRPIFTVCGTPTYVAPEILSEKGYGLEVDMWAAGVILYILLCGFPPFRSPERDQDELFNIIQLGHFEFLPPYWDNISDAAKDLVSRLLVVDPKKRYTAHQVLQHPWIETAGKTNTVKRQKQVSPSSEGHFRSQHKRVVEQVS
T7 sequence (P19525 whole entry): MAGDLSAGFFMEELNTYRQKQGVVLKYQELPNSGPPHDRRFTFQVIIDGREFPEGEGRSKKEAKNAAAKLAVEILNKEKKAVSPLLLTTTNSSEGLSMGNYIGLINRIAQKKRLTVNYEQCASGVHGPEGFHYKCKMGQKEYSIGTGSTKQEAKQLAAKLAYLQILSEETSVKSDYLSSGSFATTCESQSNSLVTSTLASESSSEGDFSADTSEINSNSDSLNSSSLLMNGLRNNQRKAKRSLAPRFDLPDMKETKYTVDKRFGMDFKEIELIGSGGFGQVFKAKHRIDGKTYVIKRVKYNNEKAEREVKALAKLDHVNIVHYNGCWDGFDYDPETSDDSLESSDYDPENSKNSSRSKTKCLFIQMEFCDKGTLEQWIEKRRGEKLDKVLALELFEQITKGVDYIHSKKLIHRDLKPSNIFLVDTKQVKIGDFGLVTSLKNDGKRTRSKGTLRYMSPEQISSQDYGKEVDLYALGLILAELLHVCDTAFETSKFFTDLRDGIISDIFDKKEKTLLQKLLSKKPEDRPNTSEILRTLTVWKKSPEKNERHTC
Chain of FLT3(ITD) (P36888 564-993, change not shown): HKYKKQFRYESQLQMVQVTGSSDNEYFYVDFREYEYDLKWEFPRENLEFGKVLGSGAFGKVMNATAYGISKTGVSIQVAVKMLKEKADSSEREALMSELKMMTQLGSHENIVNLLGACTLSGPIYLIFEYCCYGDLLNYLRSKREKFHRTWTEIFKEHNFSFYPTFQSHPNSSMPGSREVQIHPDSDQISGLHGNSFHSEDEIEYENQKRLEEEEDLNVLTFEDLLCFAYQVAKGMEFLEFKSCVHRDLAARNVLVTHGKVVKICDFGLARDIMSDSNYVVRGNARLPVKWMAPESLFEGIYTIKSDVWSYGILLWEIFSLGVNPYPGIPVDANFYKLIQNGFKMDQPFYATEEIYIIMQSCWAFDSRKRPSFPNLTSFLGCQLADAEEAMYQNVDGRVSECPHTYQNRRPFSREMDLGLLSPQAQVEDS

Compound Cc1cn(-c2cc(NC(=O)c3ccc4c(c3)CN(c3cncnc3)C[C@@H]4C)cc(C(F)(F)F)c2)cn1 [Compound 6j] has a remaining activity at 1 µM (CAMKK2) of 72%, a remaining activity at 1 µM (MAPKAPK2) of 100% and a remaining activity at 1 µM (STK35) of 100%. For the same compound, the remaining activity at 1 µM (EGFR(E746-A750del)) was 94%, the remaining activity at 1 µM (AKT3) was 96% and the remaining activity at 1 µM (INSRR) was 100%. It also gave a remaining activity at 1 µM (NDR2) of 100%, a remaining activity at 1 µM (PIK4CB) of 95% and a remaining activity at 1 µM (TAOK3) of 100%. It also gave a remaining activity at 1 µM (CAMK2B) of 95%, a remaining activity at 1 µM (CSK) of 92% and a remaining activity at 1 µM (ARK5) of 82%. The remaining activity at 1 µM (PIK3CA) was 100%, the remaining activity at 1 µM (IRAK3) was 86% and the remaining activity at 1 µM (ERK8) was 84%. It also gave a remaining activity at 1 µM (PRKX) of 96%, a remaining activity at 1 µM (FLT3(ITD)) of 71% and a remaining activity at 1 µM (MEK4) of 96%. For the same compound, the remaining activity at 1 µM (DCAMKL3) was 86%, the remaining activity at 1 µM (CSF1R) was 96% and the remaining activity at 1 µM (PRKR) was 100%. It also gave a remaining activity at 1 µM (KIT-autoinhibited) of 100%, a remaining activity at 1 µM (EGFR(L858R,T790M)) of 100% and a remaining activity at 1 µM (CDKL5) of 100%. It also gave a remaining activity at 1 µM (ACVR2B) of 93%, a remaining activity at 1 µM (LRRK2(G2019S)) of 100% and a remaining activity at 1 µM (ERK4) of 93%. It also gave a remaining activity at 1 µM (PAK7) of 98%, a remaining activity at 1 µM (DCAMKL2) of 100% and a remaining activity at 1 µM (PRKD3) of 100%. The remaining activity at 1 µM (PIK3CB) was 100%, the remaining activity at 1 µM [1] was 47% and the remaining activity at 1 µM (DAPK1) was 100%. For the same compound, the remaining activity at 1 µM (TIE2) was 64% and the remaining activity at 1 µM (MST2) was 100%.
